The target of this assay is T1, Angiotensin II Receptor (Bos taurus, UniProt P25104).
T1 construct: The brownish tissue forming the adrenal cortex is scraped off and finely minced with scissors before homogenization; tissue Maxwell-Cohen (local slaughter house); host or cells: beef adrenal cortex, microsomal membranes
T1 sequence (P25104 1-359): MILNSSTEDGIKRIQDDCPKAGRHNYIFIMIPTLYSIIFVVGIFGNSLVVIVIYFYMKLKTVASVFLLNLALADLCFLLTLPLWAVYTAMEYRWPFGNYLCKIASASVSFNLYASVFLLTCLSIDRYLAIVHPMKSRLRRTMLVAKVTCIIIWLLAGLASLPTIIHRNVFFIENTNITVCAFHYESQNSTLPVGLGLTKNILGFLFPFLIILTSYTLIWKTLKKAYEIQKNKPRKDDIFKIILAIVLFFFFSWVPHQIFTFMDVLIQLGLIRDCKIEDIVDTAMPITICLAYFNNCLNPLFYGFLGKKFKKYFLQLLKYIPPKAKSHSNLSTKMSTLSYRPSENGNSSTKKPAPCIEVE
As to the kind of experiment: Receptor Binding Assay: competition with [^125 I](Sar^1, Ile^8)AngII on adrenal cortex microsomal membranes. Also noted: species or system beef. The following applies: beef adrenal cortex membranes, [^125 I](Sar^1, Ile^8)AngII, 60 min, room temperature, pH 7.4. The text has this:
Beef adrenals are obtained from a local slaughter house (Maxwell-Cohen). […] All unlabeled AngII analogs, Dimethylsulfoxide (DMSO), nucleotides, bovine serum albumin (BSA) are purchased from Sigma Chemical Co., St. Louis, Mo. U.S.A.
Approximately sixteen (16) to twenty (20) beef adrenal glands are processed as follows: fresh adrenal glands received on crushed ice are cleaned of fatty tissues and the tough membranes encapsulating the glands are removed and discarded. The brownish tissue forming the adrenal cortex is scraped off and finely minced with scissors before homogenization. Care is taken to avoid contamination with medullary tissue during dissection. The scraped cortices are suspended in twenty volumes of an ice-cold buffer medium consisting of 10 mM Tris.HCl (pH 7.4 at 22° C.) and containing 1.0 mM EDTA and 0.2M sucrose. Unless otherwise indicated, all subsequent operations are done at 4° C. […] The homogenate is centrifuged first at low speed (3,000× g) for 10 min. The resulting pellet is discarded and the supernatant fluid recentrifuged at 10,000× g for 15 minutes to give a P2 pellet. […] The translucent final pellet is harvested and combined in a small volume (20-50.0 ml) of 50.0 mM Tris.HCl buffer, pH 7.2. […] The pelleted membrane is reconstituted in 50.0 mM Tris.HCl buffer containing 0.1 mM of phenylmethylsulfonyl fluoride (PMSF) to give approximately a protein concentration of 2.5 mg per ml of tissue suspension. The membrane preparation is finally aliquoted in 1.0 ml volumes and stored at -70° C. until use in the binding assays.
Assays are performed in triplicate. The wells are left undisturbed for 60 min. at room temperature. […] The filter discs are washed with 10×1.0 ml of cold 0.9% NaCl to remove unbound ligand. […] This method is routinely used. The filters are removed from the filter grid and counted in a Parkard® Cobra Gamma Counter for 1 min. (Packard Instrument Co., Downers Grove, Ill., U.S.A.).

This is an account of results in patent US5338736A, “Angiotensin II receptor blocking 2,3,6-substituted quinazolinones” (American Cyanamid Company, priority 1993, dated 1994).

Molecules are shown by their SMILES.

As usually defined, the IC50 is the concentration that gives 50% inhibition. In turn, `CCCCc1nc2ccc(C3CCC4CCCCC4O3)cc2c(=O)n1Cc1ccc(-c2ccccc2-c2nn[nH]n2)cc1` (stereo not shown) [Example 11] returned a half-inhibitory concentration (IC50) of 132 nM.
